Values after ≈ are worked out from the molar mass of the structure shown. Values joined by “and” are separate entries in the source; they are usually repeats but may differ in a detail not shown here. Equal entries are not always repeated. Values belong to the compound of their own block, whether it stands above or below them.
Tests used:
A. baumannii 6043 = test: microbe, parasite or virus in culture; assay type: cell-based, Acinetobacter baumannii; settings: Acinetobacter baumannii, 6043, 24 h, read-out: Minimum Inhibitory Concentration (MIC)
Protocol: (§1) Strains were obtained from American Type Culture Collection (ATCC, Manassas, VA) or the clinical isolate collection at Trideum Biosciences (Frederick, MD, USA). Bioluminescence strains of P. aeruginosa 19660, transfected with the Xen5 luciferase gene, and S. aureus ATCC® 49525™ (Wright), transfected with the Xen36 luciferase gene, were obtained from Perkin Elmer (Hopkinton, MA).
(§2) A single colony was aseptically picked from an agar overlay and released in 25–30 mL of pre-warmed trypticase soy broth in a culture flask. Each culture was incubated overnight in a 37°C incubator. […] Pathogen growth was measured by absorbance at 600 nm. Four replicas were included for each test agent concentration. […]

A. baumannii 6838 = test: microbe, parasite or virus in culture; assay type: cell-based, Acinetobacter baumannii; settings: Acinetobacter baumannii, 6838, 24 h, read-out: Minimum Inhibitory Concentration (MIC)
Protocol: as §1, §2

A. baumannii ATCC 17978 = test: microbe, parasite or virus in culture; assay type: cell-based, Acinetobacter baumannii; settings: Acinetobacter baumannii, ATCC17978, 24 h, read-out: Minimum Inhibitory Concentration (MIC)
Protocol: as §1, §2

K. pneumonia 6066 = test: microbe, parasite or virus in culture; assay type: cell-based, Klebsiella pneumoniae; settings: Klebsiella pneumoniae, 6066, 24 h, read-out: Minimum Inhibitory Concentration (MIC)
Protocol: as §1, §2

K. pneumonia 6069 = test: microbe, parasite or virus in culture; assay type: cell-based, Klebsiella pneumoniae; settings: Klebsiella pneumoniae, 6069, 24 h, read-out: Minimum Inhibitory Concentration (MIC)
Protocol: as §1, §2

K. pneumonia ATCC 10031 = test: microbe, parasite or virus in culture; assay type: cell-based, Klebsiella pneumoniae; settings: Klebsiella pneumoniae, ATCC10031, 24 h, read-out: Minimum Inhibitory Concentration (MIC)
Protocol: as §1, §2

P. aeruginosa 6186 = test: microbe, parasite or virus in culture; assay type: cell-based, Pseudomonas aeruginosa; settings: Pseudomonas aeruginosa, 6186, 24 h, read-out: Minimum Inhibitory Concentration (MIC)
Protocol: as §1, §2

P. aeruginosa ATCC 19660 = test: microbe, parasite or virus in culture; assay type: cell-based, Pseudomonas aeruginosa; settings: Pseudomonas aeruginosa, ATCC19660, 24 h, read-out: Minimum Inhibitory Concentration (MIC)
Protocol: as §1, §2

P. aeruginosa ATCC 27853 = test: microbe, parasite or virus in culture; assay type: cell-based, Pseudomonas aeruginosa; settings: Pseudomonas aeruginosa, ATCC27853, 24 h, read-out: Minimum Inhibitory Concentration (MIC)
Protocol: as §1, §2

MRSA 6313 = test: microbe, parasite or virus in culture; assay type: cell-based, Staphylococcus aureus; settings: Staphylococcus aureus, MRSA, 24 h, read-out: Minimum Inhibitory Concentration (MIC)
Protocol: as §1, §2

MRSA 6381 = test: microbe, parasite or virus in culture; assay type: cell-based, Staphylococcus aureus; settings: Staphylococcus aureus, MRSA, 24 h, read-out: Minimum Inhibitory Concentration (MIC)
Protocol: as §1, §2

MRSA ATCC 33592 = test: microbe, parasite or virus in culture; assay type: cell-based, Staphylococcus aureus; settings: Staphylococcus aureus, 24 h, read-out: Minimum Inhibitory Concentration (MIC)
Protocol: as §1, §2

S. aureus 6061 = test: microbe, parasite or virus in culture; assay type: cell-based, Staphylococcus aureus; settings: Staphylococcus aureus, 6061, 24 h, read-out: Minimum Inhibitory Concentration (MIC)
Protocol: as §1, §2

S. aureus B-767 = test: microbe, parasite or virus in culture; assay type: cell-based, Staphylococcus aureus; settings: Staphylococcus aureus, B767, 24 h, read-out: Minimum Inhibitory Concentration (MIC)
Protocol: as §1, §2

S. epidermis ATCC 51625 = test: microbe, parasite or virus in culture; assay type: cell-based, S. epidermidis; settings: Staphylococcus epidermidis, ATCC51625, 24 h, read-out: Minimum Inhibitory Concentration (MIC)
Protocol: as §1, §2

E. cloacae 6053 = test: microbe, parasite or virus in culture; assay type: cell-based; settings: Enterobacter cloacae, 6053, 24 h, read-out: Minimum Inhibitory Concentration (MIC)
Protocol: as §1, §2

E. cloacae 6054 = test: microbe, parasite or virus in culture; assay type: cell-based; settings: Enterobacter cloacae, 6054, 24 h, read-out: Minimum Inhibitory Concentration (MIC)
Protocol: as §1, §2

[1] = tested on: bioluminescent P. aeruginosa 19660; test: Bioluminescence time-kill assay; assay type: cell-based, Pseudomonas aeruginosa; settings: antibiotics after 30 min incubation, triplicates, two independent experiments
Protocol: as §1
(§3) Non-invasive real-time evaluation of viability, mammalian, and bacterial cells, was performed using bioluminescent human keratinocytes (HaCaT, AddexBio, San Diego, CA) and murine L929 fibroblast cells (ATCC, Manassas, VA). The bioluminescent variants were constructed by transfection with a luciferase gene (RediFect Red-Fluc-Puromycin, Catalog #CL596002) (Hamblin et al., [2003]). […] Each concentration was performed in triplicate. Bioluminescence imaging was performed at pre-specified times (0, 15, and 30 min and 1, 3, 5, 8, and 24 h) and compared to concurrently run vehicle-controls. The 96-well plate was positioned on the stage (12.5-cm field of view) within the in vivo Imaging System (IVIS) imaging system (Caliper Life Sciences, Inc., Hopkinton, MA, USA), with an open emission filter, binning of 4, and f-stop 1, and a 1-min exposure time. The resultant photons emitted from the live cells were quantified using Living Image® software (version 4.3, Caliper Life Sciences, Inc.). […]

[2] = tested on: bioluminescent S. aureus 49525; test: Bioluminescence time-kill assay; assay type: cell-based, Staphylococcus aureus; settings: antibiotics after 30 min incubation, triplicates, two independent experiments
Protocol: as §1, §3

[3] = tested on: preformed C. albicans biofilm; settings: ref Woodburn et al., under review; cited from earlier work
C. parapsilosis Y-1761 = test: microbe, parasite or virus in culture; assay type: cell-based; settings: Lodderomyces parapsilosis, Y1761, 24-h incubation, mean of 3 replicates from 2 independent experiments, read-out: Minimum Inhibitory Concentration (MIC)
Protocol: as §1, §2

C. parapsilosis Y-1763 = test: microbe, parasite or virus in culture; assay type: cell-based; settings: Lodderomyces parapsilosis, Y1763, 24-h incubation, mean of 3 replicates from 2 independent experiments, read-out: Minimum Inhibitory Concentration (MIC)
Protocol: as §1, §2

[4] = tested on: 6 hr MRSA ATCC 1556 biofilm; assay type: cell-based, Staphylococcus aureus; settings: ATCC 1556, 6 h
[5] = tested on: mature (120 h) MRSA ATCC 1556 biofilm; assay type: cell-based, Staphylococcus aureus; settings: ATCC 1556, 120 h

Compound: CN[C@H](CC(C)C)C(=O)N[C@H]1C(=O)N[C@@H](CC(N)=O)C(=O)N[C@H]2C(=O)N[C@H]3C(=O)N[C@H](C(=O)N[C@H](C(=O)O)c4cc(O)cc(O)c4-c4cc3ccc4O)[C@H](O)c3ccc(c(Cl)c3)Oc3cc2cc(c3O[C@@H]2O[C@H](CO)[C@@H](O)[C@H](O)[C@H]2O[C@H]2C[C@](C)(N)[C@H](O)[C@H](C)O2)Oc2ccc(cc2Cl)[C@H]1O [Vancomycin, vancomycin]
MIC (A. baumannii 6043): > 88.3 µM | MIC (A. baumannii 6838): > 88.3 µM | MIC (A. baumannii ATCC 17978): > 88.3 µM | MIC (K. pneumonia 6066): > 88.3 µM | MIC (K. pneumonia 6069): > 88.3 µM | MIC (K. pneumonia ATCC 10031): > 88.3 µM | MIC (P. aeruginosa 6186): > 88.3 µM | MIC (P. aeruginosa ATCC 19660): > 88.3 µM | MIC (P. aeruginosa ATCC 27853): > 88.3 µM | MIC (MRSA 6313): 1.4 µM (≈ 2.03 µg/mL) | MIC (MRSA 6381): 1.4 µM (≈ 2.03 µg/mL) | MIC (MRSA ATCC 33592): 1.4 µM (≈ 2.03 µg/mL) | MIC (S. aureus 6061): 2.1 µM (≈ 3.04 µg/mL) | MIC (S. aureus B-767): > 88.3 µM | MIC (S. epidermis ATCC 51625): 2.1 µM (≈ 3.04 µg/mL) | MIC (E. cloacae 6053): > 88.3 µM | MIC (E. cloacae 6054): > 88.3 µM | Bactericidal activity in time-kill assay [1]: no trace of antibacterial activity | Bactericidal activity in time-kill assay [2]: no trace of antibacterial activity

Compound: OC(Cn1cncn1)(Cn1cncn1)c1ccc(F)cc1F [fluconazole]
Killing fungi in preformed C. albicans biofilm and preventing biofilm formation [3]: markedly ineffective

MIC (C. parapsilosis Y-1761): 1 µM and 1.08 µg/mL | MIC (C. parapsilosis Y-1763): 1 µM and 1.08 µg/mL
Compound: C[C@@H]1[C@H](O)[C@@H](C)/C=C/C=C/C=C/C=C/C=C/C=C/C=C/[C@H](O[C@@H]2O[C@H](C)[C@@H](O)[C@H](N)[C@@H]2O)C[C@@H]2O[C@](O)(C[C@@H](O)C[C@@H](O)[C@H](O)CC[C@@H](O)C[C@@H](O)CC(=O)O[C@H]1C)C[C@H](O)[C@H]2C(=O)O [Amphotericin b, amphotericin B]

EC90, biofilm CFU [4]: > 100 µg/mL | EC90 (concentration to reduce biofilm by 90%) [5]: ~ 100 μg/mL
Compound: CCCCCCCCCC(=O)N[C@@H](Cc1c[nH]c2ccccc12)C(=O)N[C@H](CC(N)=O)C(=O)N[C@@H](CC(=O)O)C(=O)N[C@@H]1C(=O)NCC(=O)N[C@@H](CCCN)C(=O)N[C@@H](CC(=O)O)C(=O)N[C@H](C)C(=O)N[C@@H](CC(=O)O)C(=O)NCC(=O)N[C@H](CO)C(=O)N[C@@H]([C@H](C)CC(=O)O)C(=O)N[C@@H](CC(=O)c2ccccc2N)C(=O)O[C@@H]1C [daptomycin]
